Drawing on patent US8227613B2, “Heteroaryl carboxamide derivatives” (Hoffmann-La Roche Inc., priority 2008, dated 2012), this text covers IC50 for 26 compounds.

The target in the test is T1, human chemokine receptor 2 isoform B (CCR2B) (Homo sapiens, UniProt P41597).
T1 construct: host or cells: CHO-K1 (CHOK1-CCR2B-A5)
T1 sequence (P41597 1-360 isoform P41597-2): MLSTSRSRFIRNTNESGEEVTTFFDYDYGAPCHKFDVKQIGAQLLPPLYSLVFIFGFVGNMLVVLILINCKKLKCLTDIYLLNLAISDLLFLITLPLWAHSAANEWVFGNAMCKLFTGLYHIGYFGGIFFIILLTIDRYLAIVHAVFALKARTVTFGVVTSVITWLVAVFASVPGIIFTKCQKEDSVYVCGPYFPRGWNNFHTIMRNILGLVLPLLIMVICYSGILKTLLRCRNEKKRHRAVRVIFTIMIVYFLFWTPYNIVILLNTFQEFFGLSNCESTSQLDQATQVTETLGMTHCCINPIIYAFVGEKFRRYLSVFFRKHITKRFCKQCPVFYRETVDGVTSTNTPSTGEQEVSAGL
As to the kind of experiment: Calcium mobilization assay (FLIPR, MCP-1 stimulated CHOK1-CCR2B-A5 cells). The format is cell-based. The note with it: 20 nM MCP-1, antagonist activity, read-out: IC50 (inhibitor concentration required for 50% inhibition of specific calcium increases). The protocol: Calcium Mobilization Assay
CHOK1-CCR2B-A5 cells (from Euroscreen) stably overexpressing the human chemokine receptor 2 isoform B were cultured in Nutrient Hams F12 medium supplemented with 5% FBS, 100 U/ml penicillin, 100 μg/ml streptomycin, 400 μg/ml G418 and 5 μg/ml puromycin.
For the assay cells were grown overnight in 384-well black clear flat bottom polystyrene plates (Costar) at 37° C. at 5% CO2. After washing with DMEM, 20 mM Hepes, 2.5 mM probenecid, 0.1% BSA (DMEM assay buffer) cells were loaded with 4 μM Fluo-4 in the same DMEM assay buffer for 2 hours at 30° C. Excess dye was removed and cells were washed with DMEM assay buffer. 384-well compound plates were prepared with DMEM assay buffer/0.5% DMSO with or without various concentrations of test compounds. Usually compounds were tested for agonist and antagonist activity.
Test compounds were added to the assay plate and agonist activity was monitored as fluorescence for 80 seconds with a FLIPR (488 nm excitation; 510-570 nm emission; Molecular Devices). After 20-30 min. of incubation at 30° C., 20 nM MCP-1 (R&D; Roche) was added and fluorescence was monitored again for 80 seconds. Increases in intracellular calcium are reported as maximum fluorescence after agonist exposure minus basal fluorescence before exposure. Antagonist activity is indicated as inhibitor concentration required for 50% inhibition of specific calcium increases.
(Calcium flux is commonly read through the fluorescence of an indicator in the cells.)
For the compound `Cc1cc(-c2cccc(C(F)(F)F)c2)c(NCCN)nc1C(=O)N1CCC(N2CCCC2)CC1` [Example 26, [6-(2-Amino-ethylamino)-3-methyl-5-(3-trifluoromethyl-phenyl)-pyridin-2-yl]-(4-pyrrolidin-1-yl-piperidin-1-yl)-methanone], the IC50 is 67 nM.

As to `Cc1cc(-c2cccc(C(F)(F)F)c2)c(NCCO)nc1C(=O)N1CCC(N2CCCC2)CC1` [Example 27, [6-(2-Hydroxy-ethylamino)-3-methyl-5-(3-trifluoromethyl-phenyl)-pyridin-2-yl]-(4-pyrrolidin-1-yl-piperidin-1-yl)-methanone], the IC50 is 41 nM.

With `Cc1cc(-c2ccc(Cl)c(Cl)c2)cnc1C(=O)N1CCC(N2CCCC2)CC1` [Example 28, [5-(3,4-Dichloro-phenyl)-3-methyl-pyridin-2-yl]-(4-pyrrolidin-1-yl-piperidin-1-yl)-methanone], the IC50 came out at 250 nM.

For the compound `Cc1cc(-c2cc(C(F)(F)F)ccc2Cl)cnc1C(=O)N1CCC(N2CCCC2)CC1` [Example 30, [5-(2-Chloro-5-trifluoromethyl-phenyl)-3-methyl-pyridin-2-yl]-(4-pyrrolidin-1-yl-piperidin-1-yl)-methanone], the IC50 came out at 54 nM.

In the case of `Cc1cc(-c2cc(C(F)(F)F)ccc2F)cnc1C(=O)N1CCC(N2CCCC2)CC1` [Example 31, [5-(2-Fluoro-5-trifluoromethyl-phenyl)-3-methyl-pyridin-2-yl]-(4-pyrrolidin-1-yl-piperidin-1-yl)-methanone], the IC50 amounted to 25 nM.

Regarding `Cc1cc(-c2cccc(C(F)(F)F)c2)c(-c2cnn[nH]2)nc1C(=O)N1CCC(N2CCCC2)CC1` [Example 32, [3-Methyl-6-(1H-[1,2,3]triazol-4-yl)-5-(3-trifluoromethyl-phenyl)-pyridin-2-yl]-(4-pyrrolidin-1-yl-piperidin-1-yl)-methanone], the IC50 was determined as 23 nM.

As for `COc1ccc(C(F)(F)F)cc1-c1cnc(C(=O)N2CCC(N3CCCC3)CC2)c(C)c1` [Example 33, [5-(2-Methoxy-5-trifluoromethyl-phenyl)-3-methyl-pyridin-2-yl]-(4-pyrrolidin-1-yl-piperidin-1-yl)-methanone], the IC50 came to 16 nM.

As to `Cc1cc(-c2ccc(F)c(C(F)(F)F)c2)cnc1C(=O)N1CCC(N2CCCC2)CC1` [Example 34, [5-(4-Fluoro-3-trifluoromethyl-phenyl)-3-methyl-pyridin-2-yl]-(4-pyrrolidin-1-yl-piperidin-1-yl)-methanone], the IC50 amounted to 59 nM.

`COc1ccc(-c2cnc(C(=O)N3CCC(N4CCCC4)CC3)c(C)c2)cc1C(F)(F)F` [Example 35, [5-(4-Methoxy-3-trifluoromethyl-phenyl)-3-methyl-pyridin-2-yl]-(4-pyrrolidin-1-yl-piperidin-1-yl)-methanone]: the IC50 was 560 nM.

Regarding `Cc1cc(-c2cccc(C(F)(F)F)c2F)cnc1C(=O)N1CCC(N2CCCC2)CC1` [Example 36, [5-(2-Fluoro-3-trifluoromethyl-phenyl)-3-methyl-pyridin-2-yl]-(4-pyrrolidin-1-yl-piperidin-1-yl)-methanone], the IC50 turned out to be 180 nM.

Take `Cc1cc(-c2cc(F)cc(C(F)(F)F)c2)cnc1C(=O)N1CCC(N2CCCC2)CC1` [Example 37, [5-(3-Fluoro-5-trifluoromethyl-phenyl)-3-methyl-pyridin-2-yl]-(4-pyrrolidin-1-yl-piperidin-1-yl)-methanone]: the IC50 worked out at 36 nM.

Take `Cc1cc(-c2cccc(C(F)(F)F)c2)c(-c2cnc(N)nc2)nc1C(=O)N1CCC(N2CCCC2)CC1` [Example 39, [6-(2-Amino-pyrimidin-5-yl)-3-methyl-5-(3-trifluoromethyl-phenyl)-pyridin-2-yl]-(4-pyrrolidin-1-yl-piperidin-1-yl)-methanone]: the IC50 amounted to 5.8 nM.

In the case of `Cc1cc(-c2cccc(C(F)(F)F)c2)c(-c2ccc(N)nc2)nc1C(=O)N1CCC(N2CCCC2)CC1` [Example 40, [6′-Amino-5-methyl-3-(3-trifluoromethyl-phenyl)-[2,3′]bipyridinyl-6-yl]-(4-pyrrolidin-1-yl-piperidin-1-yl)-methanone], the IC50 worked out at 3.9 nM.

Take `Cc1cc(-c2cccc(C(F)(F)F)c2)c(-c2ccc(O)nc2)nc1C(=O)N1CCC(N2CCCC2)CC1` [Example 41, [6′-Hydroxy-5-methyl-3-(3-trifluoromethyl-phenyl)-[2,3′]bipyridinyl-6-yl]-(4-pyrrolidin-1-yl-piperidin-1-yl)-methanone]: the IC50 was 16 nM.

In the case of `Cc1cc(-c2cccc(C(F)(F)F)c2)c(C#N)nc1C(=O)N1CCC(N2CCCC2)CC1` [Example 42, 5-Methyl-6-(4-pyrrolidin-1-yl-piperidine-1-carbonyl)-3-(3-trifluoromethyl-phenyl)-pyridine-2-carbonitrile], the IC50 was 26 nM.

With `Cc1cc(-c2cccc(C(F)(F)F)c2)c(C(N)=O)nc1C(=O)N1CCC(N2CCCC2)CC1` [Example 43, 5-Methyl-6-(4-pyrrolidin-1-yl-piperidine-1-carbonyl)-3-(3-trifluoromethyl-phenyl)-pyridine-2-carboxylic acid amide], the IC50 turned out to be 25 nM.

As to `COc1ncc(-c2nc(C(=O)N3CCC(N4CCCC4)CC3)c(C)cc2-c2cccc(C(F)(F)F)c2)cn1` [Example 44, [6-(2-Methoxy-pyrimidin-5-yl)-3-methyl-5-(3-trifluoromethyl-phenyl)-pyridin-2-yl]-(4-pyrrolidin-1-yl-piperidin-1-yl)-methanone], the IC50 came out at 12 nM.

Take `COC(=O)c1nc(C(=O)N2CCC(N3CCCC3)CC2)c(C)cc1-c1cccc(C(F)(F)F)c1` [Example 45, 5-Methyl-6-(4-pyrrolidin-1-yl-piperidine-1-carbonyl)-3-(3-trifluoromethyl-phenyl)-pyridine-2-carboxylic acid methyl ester]: the IC50 came out at 7.5 nM.

In the case of `Cc1cc(-c2cccc(C(F)(F)F)c2)c(CO)nc1C(=O)N1CCC(N2CCCC2)CC1` [Example 46, [6-Hydroxymethyl-3-methyl-5-(3-trifluoromethyl-phenyl)-pyridin-2-yl]-(4-pyrrolidin-1-yl-piperidin-1-yl)-methanone], the IC50 came out at 12 nM.

Regarding `Cc1cc(-c2cccc(C(F)(F)F)c2)c(C(=O)O)nc1C(=O)N1CCC(N2CCCC2)CC1` [Example 47, 5-Methyl-6-(4-pyrrolidin-1-yl-piperidine-1-carbonyl)-3-(3-trifluoromethyl-phenyl)-pyridine-2-carboxylic acid], the IC50 was determined as 310 nM.

On to `Cc1cc(-c2cccc(C(F)(F)F)c2)c(-c2cn[nH]c2)nc1C(=O)N1CCC(N2CCCC2)CC1` [Example 48, [3-Methyl-6-(1H-pyrazol-4-yl)-5-(3-trifluoromethyl-phenyl)-pyridin-2-yl]-(4-pyrrolidin-1-yl-piperidin-1-yl)-methanone], for which the IC50 is 12 nM.

For the compound `Cc1cc(-c2cccc(C(F)(F)F)c2)c(-c2cc[nH]n2)nc1C(=O)N1CCC(N2CCCC2)CC1` [Example 49, [3-Methyl-6-(1H-pyrazol-3-yl)-5-(3-trifluoromethyl-phenyl)-pyridin-2-yl]-(4-pyrrolidin-1-yl-piperidin-1-yl)-methanone], the IC50 was 10 nM.

Take `Cc1cc(-c2cccc(C(F)(F)F)c2)c(-c2cnn(C)c2)nc1C(=O)N1CCC(N2CCCC2)CC1` [Example 50, [3-Methyl-6-(1-methyl-1H-pyrazol-4-yl)-5-(3-trifluoromethyl-phenyl)-pyridin-2-yl]-(4-pyrrolidin-1-yl-piperidin-1-yl)-methanone]: the IC50 was 18 nM.

With `Cc1cc(-c2cccc(C(F)(F)F)c2)c(-c2cnccn2)nc1C(=O)N1CCC(N2CCCC2)CC1` [Example 51, [3-Methyl-6-pyrazin-2-yl-5-(3-trifluoromethyl-phenyl)-pyridin-2-yl]-(4-pyrrolidin-1-yl-piperidin-1-yl)-methanone], the IC50 turned out to be 5.5 nM.

`Cc1cc(-c2cccc(C(F)(F)F)c2)c(-c2ccnn2C)nc1C(=O)N1CCC(N2CCCC2)CC1` [Example 53, [3-Methyl-6-(2-methyl-2H-pyrazol-3-yl)-5-(3-trifluoromethyl-phenyl)-pyridin-2-yl]-(4-pyrrolidin-1-yl-piperidin-1-yl)-methanone]: the IC50 was determined as 15 nM.

With `Cc1cc(-c2cccc(C(F)(F)F)c2)c(-c2cnc(O)nc2O)nc1C(=O)N1CCC(N2CCCC2)CC1` [Example 54, [6-(2,4-Dihydroxy-pyrimidin-5-yl)-3-methyl-5-(3-trifluoromethyl-phenyl)-pyridin-2-yl]-(4-pyrrolidin-1-yl-piperidin-1-yl)-methanone], the IC50 worked out at 120 nM.
